# Results: the NIST ThermoML archive (doi:10.1016/j.jct.2013.03.007)
# ± gives the expanded uncertainty stated by the source.
# Details: 101.33 kPa, Liquid, Vibrating tube method
Compound,mass density (293.2 K) [kg/m3],mass density (298.2 K) [kg/m3],mass density (303.2 K) [kg/m3],mass density (308.2 K) [kg/m3],mass density (313.2 K) [kg/m3],mass density (318.2 K) [kg/m3],mass density (323.2 K) [kg/m3],mass density (328.2 K) [kg/m3],mass density (333.2 K) [kg/m3],mass density (338.2 K) [kg/m3],mass density (343.2 K) [kg/m3],mass density (348.2 K) [kg/m3],mass density (353.2 K) [kg/m3],mass density (358.2 K) [kg/m3],mass density (288.2 K) [kg/m3]
CCCCn1cc[n+](C)c1.F[B-](F)(F)F [1-butyl-3-methylimidazolium tetrafluoroborate],1204.1 ± 1.3,1201 ± 1.3,1197.5 ± 1.3,1194 ± 1.3,1190.4 ± 1.3,1186.9 ± 1.2,1183.4 ± 1.2,1180 ± 1.2,1176.5 ± 1.2,1173 ± 1.2,1169.6 ± 1.2,1166.1 ± 1.2,1162.7 ± 1.2,1159.3 ± 1.2,–
CCCCn1cc[n+](C)c1.F[P-](F)(F)(F)(F)F [1-butyl-3-methylimidazolium hexafluorophosphate],1372.1 ± 0.6,1367.8 ± 0.6,1363.6 ± 0.5,1359.5 ± 0.5,1355.6 ± 0.5,1351.3 ± 0.5,1347.2 ± 0.5,1343.1 ± 0.5,1339 ± 0.5,1335 ± 0.5,1330.9 ± 0.5,1326.8 ± 0.5,1322.8 ± 0.5,–,1376.4 ± 0.6
